Experimental data taken from article PMC12426935, “On-Cell Saturation Transfer Difference NMR Spectroscopy on Ion Channels: Characterizing Negative Allosteric Modulator Binding Interactions of P2X7” (Journal of the American Chemical Society, 2025).
Read-outs that look alike come from different tables or passages of the source.

Key:
[1] = biological target: T1, rat P2X7 (rP2X7) (Rattus norvegicus, UniProt Q64663); test: fura-2 intracellular calcium assay on HEK-293 stable cell line expressing rat P2X7; format: cell-based; conditions: Rat P2X7 (Table 1), n = 3
T1 construct: expressed in transfected cells
T1 sequence (Q64663 1-595): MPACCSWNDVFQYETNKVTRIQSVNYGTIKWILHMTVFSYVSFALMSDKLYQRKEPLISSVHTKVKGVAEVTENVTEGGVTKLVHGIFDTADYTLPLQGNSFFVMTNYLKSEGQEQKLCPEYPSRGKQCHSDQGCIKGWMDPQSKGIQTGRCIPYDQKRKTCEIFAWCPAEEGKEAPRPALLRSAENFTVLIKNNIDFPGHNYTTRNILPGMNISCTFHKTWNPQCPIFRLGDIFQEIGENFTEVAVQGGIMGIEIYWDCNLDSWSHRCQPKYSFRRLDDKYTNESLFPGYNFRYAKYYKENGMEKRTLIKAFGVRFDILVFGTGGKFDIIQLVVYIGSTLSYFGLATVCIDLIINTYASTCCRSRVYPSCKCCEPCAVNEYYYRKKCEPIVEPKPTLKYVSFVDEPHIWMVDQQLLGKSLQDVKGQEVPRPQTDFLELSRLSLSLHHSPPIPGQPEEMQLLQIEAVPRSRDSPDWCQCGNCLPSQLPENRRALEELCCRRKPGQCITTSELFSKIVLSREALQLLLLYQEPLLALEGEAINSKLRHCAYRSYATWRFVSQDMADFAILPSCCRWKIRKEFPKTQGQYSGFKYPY
Procedure: (§1) Genetically edited HEK-293 cells lacking P2Y2 receptors were used to generate stable cell lines expressing human P2X7 (hP2X7), mouse P2X7 (mP2X7), rat P2X7 (rP2X7), or mutants of the hP2X7 NAM site (F88A, M105A, and F103A). Transfection was performed using lipofectamine 2000 (Fisher Scientific), and cells were subjected to Geneticin (800 μg/mL) selection for 2–3 weeks. This was followed by single cell cloning by limiting dilution in 96-well plates. Individual clones were selected for further study based on ATP-induced TO-PRO-3 uptake on a BD Cytoflex flow cytometer. Cell lines were maintained in DMEM:F12 media supplemented with 10% fetal bovine serum (PanBiotech), penicillin and streptomycin (Fisher Scientific) and kept in a humidified incubator with 5% CO2. Stable P2X7-expressing cells were kept under Geneticin selection at a concentration of 400 μg/mL. Passaging was performed twice weekly using 0.25% Trypsin-EDTA (Fisher Scientific).
(§2) P2X7 responses were measured by monitoring intracellular calcium responses using fura-2AM loaded cells. Cells were plated at 2–2.5 × 10^4 cells/well the day before experiments in 96-well plates (NUNC) coated with 50 μg/mL poly-D-lysine (Merck Millipore). A loading buffer containing 2 μM fura-2AM (HelloBio) and 250 μM sulfinpyrazone (Merck Millipore) in a low divalent buffer (145 mM NaCl, 5 mM KCl, 0.2 mM CaCl2, 10 mM HEPES, 13 mM glucose, pH 7.3) was added to cells for 45 min at 37 °C. After loading, the buffer was removed and replaced with calcium-containing extracellular solution (145 mM NaCl, 5 mM KCl, 2 mM CaCl2, 10 mM HEPES, 13 mM glucose, pH 7.3). Responses were measured using a Flexstation 3 plate reader (Molecular Devices) with dual excitation wavelengths of 340 and 380 nm and single emission wavelength of 510 nm. The sample interval was 3.5 s, and each well was recorded for 180 s. Fura-2 ratios were calculated in Softmax Pro v5.4; zero baseline was applied, and responses were measured as normalized area under the curve (AUC). Dose inhibition curves were plotted using GraphPad Prism v6 nonlinear regression (three parameter fit) and log IC50 values reported.

[2] = biological target: T2, mouse P2X7 (mP2X7) (Mus musculus, UniProt Q9Z1M0); test: fura-2 intracellular calcium assay on HEK-293 stable cell line expressing mouse P2X7; format: cell-based
T2 construct: expressed in transfected cells
T2 sequence (Q9Z1M0 1-595): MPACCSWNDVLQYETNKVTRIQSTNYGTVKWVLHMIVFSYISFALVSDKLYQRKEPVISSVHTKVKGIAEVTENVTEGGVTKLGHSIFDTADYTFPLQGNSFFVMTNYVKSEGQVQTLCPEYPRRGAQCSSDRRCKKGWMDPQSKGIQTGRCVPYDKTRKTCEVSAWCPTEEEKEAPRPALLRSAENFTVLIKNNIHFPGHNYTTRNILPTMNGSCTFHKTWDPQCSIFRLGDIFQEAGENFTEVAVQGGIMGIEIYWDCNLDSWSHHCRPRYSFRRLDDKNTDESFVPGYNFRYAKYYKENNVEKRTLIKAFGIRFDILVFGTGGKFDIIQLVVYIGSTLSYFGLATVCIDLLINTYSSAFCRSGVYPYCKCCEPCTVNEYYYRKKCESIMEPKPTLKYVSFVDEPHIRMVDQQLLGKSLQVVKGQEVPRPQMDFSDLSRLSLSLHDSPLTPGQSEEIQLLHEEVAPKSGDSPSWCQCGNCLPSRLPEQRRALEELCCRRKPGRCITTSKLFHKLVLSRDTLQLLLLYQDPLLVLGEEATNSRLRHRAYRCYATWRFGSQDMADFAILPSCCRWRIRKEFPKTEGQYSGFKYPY
Procedure: as §1
as §2, with “Dose inhibition curves were plotted using GraphPad Prism v6 nonlinear regression (three parameter fit) and log IC50 values reported.” left out

`O=C(NCC1(N2CCN(c3ccccc3)CC2)CCOCC1)c1cccnc1Sc1ccccc1` [JNJ-47965567] was tested, and the IC50 ([1]; log IC50 ± standard error, read-out: Log IC50 (converted)) was 17.4 nM, the IC50 ([1]; mean in brackets, read-out: mean IC50) was 17.6 nM and the IC50 ([2]; Mouse P2X7 (Table 1), mean in brackets, n = 3) was 125 nM. For the same compound, the “difference between hP2X7 and mP2X7 IC50 values” ([2]; mP2X7 vs hP2X7) was 13 fold.
